From ChEMBL document CHEMBL1124183, “Conformations of complexes between mitomycins and decanucleotides. 3. Sequence specificity, binding at C-10, and mitomycin analogues” (1988) come the findings set out here.

The species entered for the test is Mus musculus. Kind of test: Minimum effective dose (MED) of compound against P388 Leukemia in mice was determined. Format: functional. Conditions: read-out: MED.
Consider `CO[C@@]12C(COC(N)=O)C3=C(C(=O)C(C)=C(NCCS)C3=O)N1CC1NC12` (some centres undefined), for which the minimal effective dose worked out at 0.2 mg/kg. Under `CO[C@@]12C(COC(N)=O)C3=C(C(=O)C(C)=C(NC=[N+](C)C)C3=O)N1CC1NC12` (some centres undefined) stands 0.05 mg/kg; under `CO[C@@]12C(COC(N)=O)c3c(O)c(N=C4C=CC(=O)C=C4)c(C)c(O)c3N1CC1NC12` (some centres undefined), 0.1 mg/kg. Under `CO[C@@]12[C@H](COC(N)=O)C3=C(C(=O)C(C)=C(N)C3=O)N1C[C@@H]1N[C@@H]12` [MITOMYCIN] stands 0.2 mg/kg.
